Nine compounds from patent publication US20260217688A1, “INHIBITORS OF JAK2” (Llydaw Therapeutics, Inc., priority 2022, published 2026) can be followed below.

Some results are limits rather than exact numbers.

Series [1] deals with T1, JAK2 JH2 (Homo sapiens, UniProt O60674).
T1 construct: Enzyme: JAK2 JH2, His-Avi-Tag, Biotin-Labeled (BPS Bioscience, Cat #79074) 1 nM; His; purchased BPS Bioscience 79074
Nature of the series: JAK2 JH2 TR-FRET Assay. The class given is binding. Particulars: JAK2 JH2 1 nM, Tracer ZE84-0003 10 nM. In short, it runs like this:
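Binding by tracer displacement: biotinylated His-Avi JAK2 JH2 (1 nM) with streptavidin Tb-cryptate (0.2 nM) pre-incubated 15 min with compound (0.25% DMSO), then 10 nM tracer added, 15 min at rt. Buffer was 20 mM HEPES pH 7.2-7.4, 10 mM MgCl2, 0.015% Brij-35, 2 mM DTT, 0.05 mg/ml BSA; TR-FRET read 482/520 nm, EC50 binned A-D.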
Background: Time-resolved FRET reads energy transfer from a long-lived donor to a nearby acceptor.

Series [2] in a line: Proliferation inhibition assay (CellTiter-Glo), Ba/F3 JAK2 wt. The class given is cell-based. The following applies: mouse, Ba/F3 (JAK2 wt) cells. A general note: ATP-based viability assays read luminescence as a measure of living cells.
Series [3] can be described thus: Proliferation inhibition assay (CellTiter-Glo), Ba/F3 JAK2 V617F. Particulars: mouse, Ba/F3 (JAK2 V617F) cells; with 10 ng/ml rmIL-3, 72 h; read-out: Ba/F3 JAK2 V617F + IL3, CC50 3 days. The class given is cell-based.
For series [4], the system named is Ba/F3 (JAK2 V617F) cells. Described as above. The class given is cell-based. Particulars: Mus musculus, BaF3; without IL3, 72 h; read-out: Ba/F3 JAK2 V617F, CC50 3 days.
Where [5] appears, read: with 10 ng/ml rmIL-3, 72 h, read-out: Ba/F3 JAK2 wt + IL3, CC50 3 days.
Where [6] appears, read: without IL3, 72 h, read-out: Ba/F3 JAK2 wt, CC50 3 days.

T1 sequence (O60674 545-809 limits assumed): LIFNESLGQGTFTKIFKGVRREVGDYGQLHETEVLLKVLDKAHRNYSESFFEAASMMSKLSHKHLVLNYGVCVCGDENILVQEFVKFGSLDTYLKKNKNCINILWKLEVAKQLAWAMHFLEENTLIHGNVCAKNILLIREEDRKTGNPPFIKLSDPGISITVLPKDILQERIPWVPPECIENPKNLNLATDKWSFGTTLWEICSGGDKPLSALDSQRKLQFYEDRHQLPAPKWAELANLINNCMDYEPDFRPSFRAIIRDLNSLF

Broadly, the EC50 is the concentration that produces a half-maximal response. The compound `COc1c(Nc2nc(Nc3cnn(C)c3)ncc2C(N)=O)cccc1-c1nc2ccccc2o1` [Compound 12, 4-[3-(1,3-benzoxazol-2-yl)-2-methoxy-anilino]-2-[(1-methylpyrazol-4-yl)amino]pyrimidine-5-carboxamide] registered an EC50 in series [1] of 0.01 to 0.05 µM. Also, the results for the CC50 at 72 h in series [2] (setting [5]), in series [2] (setting [6]) and in series [3] were over 10 µM, over 10 µM and 1 to 5 µM, respectively. In addition, the CC50 in series [4] is at most 0.5 µM.
In turn, `COc1c(Nc2nc(Nc3cnn(C(C)C)c3)ncc2C(N)=O)cccc1-c1ncn(C)n1` [Compound 4, 2-((1-Isopropyl-1H-pyrazol-4-yl)amino)-4-((2-methoxy-3-(1-methyl-1H-1,2,4-triazol-3-yl)phenyl)amino)pyrimidine-5-carboxamide] returned an EC50 in series [1] of at most 0.01 µM. Moreover, the values for the CC50 at 72 h in series [2] (setting [5]), in series [2] (setting [6]) and in series [3] were 5 to 10 µM, 5 to 10 µM and 1 to 5 µM, respectively. For the same compound, the CC50 in series [4] is at most 0.5 µM.
In series [1], `COc1c(Nc2nc(Nc3cnn(CC4CCCCC4)c3)ncc2C(N)=O)cccc1-c1ncn(C)n1` [Compound 22, 2-[[1-(cyclohexylmethyl)pyrazol-4-yl]amino]-4-[2-methoxy-3-(1-methyl-1,2,4-triazol-3-yl)anilino]pyrimidine-5-carboxamide] registered a 50% effective concentration (EC50) of 0.01 to 0.05 µM. The CC50 at 72 h in series [2] (setting [5]) lay in the range of 5 to 10 µM; in series [2] (setting [6]), 5 to 10 µM; in series [3], 1 to 5 µM. Besides, in series [4], the CC50 is at most 0.5 µM.
For `COc1c(Nc2nc(Nc3cnn(C4CCOCC4)c3)ncc2C(N)=O)cccc1-c1ncn(C)n1` [Compound 14, 4-[2-methoxy-3-(1-methyl-1,2,4-triazol-3-yl)anilino]-2-[(1-tetrahydropyran-4-ylpyrazol-4-yl)amino]pyrimidine-5-carboxamide], the concentration giving a half-maximal response (EC50) in series [1] is at most 0.01 µM. Moreover, the CC50 at 72 h in series [2] (setting [5]) was over 10 µM; in series [2] (setting [6]), over 10 µM; in series [3], 5 to 10 µM. For the same compound, the CC50 in series [4] was at most 0.5 µM.
`COc1c(Nc2nc(Nc3cnn(C4CCNCC4)c3)ncc2C(N)=O)cccc1-c1nc2ccccc2o1` [Compound 8, 4-[3-(1,3-benzoxazol-2-yl)-2-methoxy-anilino]-2-[[1-(4-piperidyl)pyrazol-4-yl]amino]pyrimidine-5-carboxamide] yielded a concentration giving a half-maximal response (EC50) in series [1] of at most 0.01 µM. The values for the CC50 at 72 h in series [2] (setting [5]), in series [2] (setting [6]) and in series [3] were over 10 µM, over 10 µM and 5 to 10 µM, respectively. Further, the CC50 in series [4] is 1 to 5 µM.
As to `COc1c(Nc2nc(Nc3cnn(-c4ccccc4)c3)ncc2C(N)=O)cccc1-c1ncn(C)n1` [Compound 6, 4-((2-Methoxy-3-(1-methyl-1H-1,2,4-triazol-3-yl)phenyl)amino)-2-((1-phenyl-1H-pyrazol-4-yl)amino)pyrimidine-5-carboxamide], in series [1], the half-maximal effective concentration (EC50) lay in the range of 0.01 to 0.05 µM. Also, the CC50 at 72 h in series [2] (setting [5]) is over 10 µM; in series [2] (setting [6]) it was over 10 µM; in series [3], at most 0.5 µM. Besides, the CC50 in series [4] was at most 0.5 µM.
Consider `CCCCCCn1cc(Nc2ncc(C(N)=O)c(Nc3cccc(-c4ncn(C)n4)c3OC)n2)cn1` [Compound 26, 2-[(1-hexylpyrazol-4-yl)amino]-4-[2-methoxy-3-(1-methyl-1,2,4-triazol-3-yl)anilino]pyrimidine-5-carboxamide], for which the EC50 in series [1] fell in the range of 0.01 to 0.05 µM. The CC50 at 72 h in series [2] (setting [5]) is 5 to 10 µM; in series [2] (setting [6]), 5 to 10 µM; in series [3], 0.5 to 1 µM. Further, in series [4], the CC50 was at most 0.5 µM.
For `COc1c(Nc2nc(Nc3cnn(C(C)C)c3)ncc2C(N)=O)cccc1-c1nc2ccccc2o1` [Compound 16, 4-[3-(1,3-benzoxazol-2-yl)-2-methoxy-anilino]-2-[(1-isopropylpyrazol-4-yl)amino]pyrimidine-5-carboxamide], the 50% effective concentration (EC50) in series [1] fell in the range of 0.01 to 0.05 µM. The values for the CC50 at 72 h in series [2] (setting [5]), in series [2] (setting [6]) and in series [3] were 5 to 10 µM, over 10 µM and 0.5 to 1 µM, respectively. In addition, the CC50 in series [4] was at most 0.5 µM.
Taken in the same sequence, the figures for `COc1c(Nc2nc(Nc3cnn(CCN(CC(C)C)CC(C)C)c3)ncc2C(N)=O)cccc1-c1ncn(C)n1` [Compound 29, 2-(1-(2-(Diisobutylamino)ethyl)-1H-pyrazol-4-ylamino)-4-(2-methoxy-3-(1-methyl-1H-1,2,4-triazol-3-yl)phenylamino)pyrimidine-5-carboxamide] were over 0.1 µM, 5 to 10 µM, 1 to 5 µM, 1 to 5 µM and at most 0.5 µM.
